Structures can show the parent of a compound that is named as a salt.
Legend:
Type in all cases: physicochemical
[1] = Dissolution rate of olopatadine hydrochloride in water, effect of NaCl and Na2HPO4
Protocol: The effect of NaCl on the dissolution rate of olopatadine hydrochloride in water was determined.

[2] = Acid-base equilibrium (pKa values) of olopatadine
Text: Olopatadine has both a carboxylic functional group (pKa1 = 4.18) and a tertiary amino group (pKa2 = 9.79). It exists in different ionic forms depending upon the pH of the solution. Olopatadine exists predominantly as a zwitterion in the pH range between the two pKa values with a negatively-charged carboxylic group and a positively-charged tertiary amino group. The isoelectric point of the olopatadine zwitterion is at pH 6.99. At a pH lower than pKa1, cationic olopatadine (with ionized tertiary amino group) is dominant. At a pH higher than pKa2, anionic olopatadine (with ionized carboxylic group) is dominant.

[3] = Dissolution rate of olopatadine hydrochloride in a nasal formulation containing 0.01% EDTA and 0.01% BAC, effect of NaCl and Na2HPO4 concentrations
Protocol: The effect of NaCl and Na2HPO4 concentrations on the dissolution rate of olopatadine hydrochloride in a nasal formulation containing 0.01% EDTA and 0.01% BAC was determined. The aqueous solubility of olopatadine HCl decreases with increasing concentration of NaCl. However, increasing phosphate buffer correlates with increased aqueous solubility of olopatadine HCl in the presence of NaCl.

[4] = Visual observation of composition clarity during compounding
Protocol: An exemplary compounding procedure for the nasal composition shown in Table 1 is described as below. • 1. Tare a suitable compounding vessel with magnetic stir bar. Add approximately 80% of the batch weight of purified water. • 2. While stirring, add dibasic sodium phosphate (anhydrous), sodium chloride, edetate disodium, benzalkonium chloride and olopatadine HCl. • 3. Add equivalent to approximately 0.55 g, 6N hydrochloric acid per 100 ml batch. • 4. Allow adequate time between each addition for dissolution of each ingredient • 5. Add purified water to approximately 90% of final batch weight. • 6. Measure pH and adjust, if necessary, to 3.7 with 6N (and/or 1N) hydrochloric acid and 1N sodium hydroxide. • 7. Adjust to final batch weight with purified water (QS). • 8. Measure final pH. • 9. Filter through 0.2 µm filtration membrane. The two compositions shown in Table 2 below were prepared using the procedure described in Example 1 and visual observations of the compositions clarity were made at different points during the compounding procedure. […] In each case, visual observations relating to the composition's clarity were recorded. […] Visual observations of the clarity of each composition were recorded as each composition was prepared.

Structure (SMILES) | effect of NaCl on the rate of dissolution ([1]; in water) | effect of addition of Na2HPO4 on dissolution ([1]; in water with NaCl) | time for complete dissolution of 0.6% olopatadine solution ([1]; in water with NaCl, with Na2HPO4) | time for complete dissolution of 0.6% olopatadine solution ([1]; in water with NaCl, without Na2HPO4, assuming the entire amount would eventually dissolve) | pKa1 ([2]; carboxylic functional group) | isoelectric point of the olopatadine zwitterion ([2]; given as pH) | pKa2 ([2]; tertiary amino group) | aqueous solubility ([3]; with increasing concentration of NaCl) | aqueous solubility ([3]; with increasing phosphate buffer, in the presence of NaCl) | solubility of 0.665% olopatadine hydrochloride in the tested nasal vehicle ([4]; without a phosphate salt) | dissolution of 0.665% olopatadine hydrochloride in water ([4]; without phosphate buffer, in the presence of 0.7% NaCl, pH as low as 3.6, compounding procedure of Example 1)
CN(C)CC/C=C1/c2ccccc2COc2ccc(CC(=O)O)cc21 [olopatadine, Z-11-(3-dimethylaminopropylidene)-6, 11-dihydrodibenz[b,e]oxepine-2-acetic acid] | significant reduction | dramatically improved | less than one | at least several hours | 4.18 | 6.99 | 9.79 |  |  |  | 
CN(C)CC/C=C1/c2ccccc2COc2ccc(CC(=O)O)cc21 [olopatadine HCl, (Z)-11-(3-dimethylaminopropylidene)-6,11-dihydro-dibenz-[b,e]oxepin-2-acetic acid] |  |  |  |  |  |  |  | decreases | increased | not soluble | did not completely dissolve
